Assay results as given in ChEMBL document CHEMBL1157346, “Synthesis and antiproliferative activity in vitro of novel (2-butynyl)thioquinolines” (2008).
Converted amounts (≈) assume the structure as drawn. The source made the active and inactive calls. No cut-off for these calls is given here.

What was measured:
Assay type in all cases: functional
[1] = (§1) Cytotoxicity against human SW707 cells after 72 hrs by SRB assay; settings: SW707, 72 h, read-out: ID50 (the source's name)
[2] = test system: CCRF-CEM; test: Cytotoxicity against human CCRF-CEM cells after 72 hrs by SRB assay; settings: for IC50: read-out: ID50 (the source's name)
[3] = test system: P388; test: Cytotoxicity against mouse P388 cells after 72 hrs by MTT assay; settings: for IC50: P388, 72 h, read-out: ID50 (the source's name)
[4] = test system: B16; test: Cytotoxicity against mouse B16 cells after 72 hrs by SRB assay; settings: for IC50: B16, 72 h, read-out: ID50 (the source's name)
[5] = test system: SW707; test: as §1

SMILES	IC50 [1] [µg/mL]	IC50 [2] [µg/mL]	IC50 [3] [µg/mL]	Activity [4]	IC50 [4] [µg/mL]	Activity [5]	Activity [2]	Activity [3]
C#CCSc1cnc2ccccc2c1SCC#CC[Se]c1c(SCC#CC)cnc2ccccc12	43 (≈ 75 µM)	30.3 (≈ 52.8 µM)	30.7 (≈ 53.5 µM)	inactive	–	–	–	–
CSc1cnc2ccccc2c1SCC#CCO	34.9 (≈ 127 µM)	2.3 (≈ 8.35 µM)	3.1 (≈ 11.3 µM)	–	49.8 (≈ 181 µM)	–	–	–
OCC#CCSc1cnc2ccccc2c1SCC#CCO	32 (≈ 97.1 µM)	2.6 (≈ 7.89 µM)	5.7 (≈ 17.3 µM)	–	42.2 (≈ 128 µM)	–	–	–
C#CCSc1cnc2ccccc2c1[Se]CC#CCO	3.3 (≈ 9.53 µM)	3.2 (≈ 9.24 µM)	3.1 (≈ 8.95 µM)	–	3.6 (≈ 10.4 µM)	–	–	–
OCC#CCSc1cnc2ccccc2c1[Se]CC#CCO	26.6 (≈ 70.7 µM)	1.4 (≈ 3.72 µM)	4.1 (≈ 10.9 µM)	–	4.3 (≈ 11.4 µM)	–	–	–
C#CCSc1cnc2ccccc2c1SCC#CCSc1c(SCC#C)cnc2ccccc12	–	–	–	inactive	–	inactive	inactive	inactive
OCC#CCSc1cnc2ccccc2c1SCC#CCBr	36.2 (≈ 92.3 µM)	0.6 (≈ 1.53 µM)	43.2 (≈ 110 µM)	–	4.9 (≈ 12.5 µM)	–	–	–
OCC#CCSc1cnc2ccccc2c1Cl	6.2 (≈ 23.5 µM)	4.1 (≈ 15.5 µM)	2.4 (≈ 9.1 µM)	inactive	–	–	–	–
CSc1cnc2ccccc2c1[Se]CC#CCO	3.4 (≈ 10.5 µM)	0.5 (≈ 1.55 µM)	2.6 (≈ 8.07 µM)	–	4.2 (≈ 13 µM)	–	–	–
COc1c(SCC#CCO)cnc2ccccc12	67.4 (≈ 260 µM)	22 (≈ 84.8 µM)	23.2 (≈ 89.5 µM)	inactive	–	–	–	–
CC#CCSc1cnc2ccccc2c1SCC#CCSc1c(SCC#CC)cnc2ccccc12	–	–	–	inactive	–	inactive	inactive	inactive
CSc1cnc2ccccc2c1SCC#CCSc1c(SC)cnc2ccccc12	–	–	–	inactive	–	inactive	inactive	inactive
C#CC[Se]c1c(SCC#CCO)cnc2ccccc12	3.8 (≈ 11 µM)	1.9 (≈ 5.49 µM)	2.5 (≈ 7.22 µM)	–	6.8 (≈ 19.6 µM)	–	–	–
OCC#CCSc1cnc2ccccc2c1[Se]CC#CCBr	2.8 (≈ 6.37 µM)	0.2 (≈ 0.455 µM)	1.6 (≈ 3.64 µM)	–	4.6 (≈ 10.5 µM)	–	–	–
CSc1c(SCC#CCO)cnc2ccccc12	69.3 (≈ 252 µM)	13.9 (≈ 50.5 µM)	32.3 (≈ 117 µM)	inactive	–	–	–	–
C[Se]c1c(SCC#CCO)cnc2ccccc12	3.5 (≈ 10.9 µM)	2.1 (≈ 6.52 µM)	19.8 (≈ 61.4 µM)	–	5.8 (≈ 18 µM)	–	–	–
C#CCSc1cnc2ccccc2c1SCC#CCO	42.6 (≈ 142 µM)	3.2 (≈ 10.7 µM)	4 (≈ 13.4 µM)	–	54.7 (≈ 183 µM)	–	–	–
C#CCSc1c(SCC#CCO)cnc2ccccc12	–	2.7 (≈ 9.02 µM)	13.3 (≈ 44.4 µM)	inactive	–	inactive	–	–
C#CCSc1cnc2ccccc2c1[Se]CC#CCBr	2.2 (≈ 5.38 µM)	0.3 (≈ 0.733 µM)	1.2 (≈ 2.93 µM)	–	4.2 (≈ 10.3 µM)	–	–	–
